Tests used:
[1] = Trans-corneal permeability in vitro across excised rabbit corneas (Franz chamber); type: in vitro ADME; conditions: excised rabbit cornea, compound in PBS, 37° C., four hours
Protocol: In this example, trans-corneal permeability of compounds are measured in-vitro across excised rabbit corneas. Excised rabbit cornea are acquired from Pel-Freez and delivered in DMEM culture media on ice overnight. The test apparatus is a curved 9 mm Franz chamber (Permegear) suitable for rabbit eyes. Test compound is prepared in PBS buffer. The compound solution is added to the donor chamber of the Franz chamber and the entire apparatus placed in an incubator at 37° C. for four hours. During incubation and at every subsequent hour, a sample is removed from the receiver chamber and analyzed by HPLC (Shimadzu Prominence) using a C18 column (Phenomenex 00E-4605-E0) in reverse phase with acetonitrile in water. The apparent permeability coefficient Papp (cm/s) is calculated as
where dM/dt is the flux (nmol/s) across the cell layers or cornea, A is the exposed surface area (cm^2) of the insert membrane of rabbit cornea, and C0 is the initial drug concentration (μM) in the donor compartment.

[2] = target: Recombinant human tissue kallikrein (KLK1) (Homo sapiens (Human), UniProt P06870); experiment: KLK1 kallikrein activity inhibition assay (Pro-Phe-Arg-AMC substrate); type: biochemical
Chain of Recombinant human tissue kallikrein (KLK1) (P06870 25-262): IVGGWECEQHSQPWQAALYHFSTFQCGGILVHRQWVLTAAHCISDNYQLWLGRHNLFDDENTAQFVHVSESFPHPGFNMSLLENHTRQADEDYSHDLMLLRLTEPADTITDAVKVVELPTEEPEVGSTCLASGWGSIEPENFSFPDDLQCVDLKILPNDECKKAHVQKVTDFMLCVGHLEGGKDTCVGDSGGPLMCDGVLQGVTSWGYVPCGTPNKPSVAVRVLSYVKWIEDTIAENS
Protocol: The KLK1 kallikrein activity reported herein (e.g., Tables B and C) was obtained as follows. Recombinant human tissue kallikrein (KLK1) was obtained from R&D Systems. […] KLK1 enzyme is activated by incubating 0.5 mg/ml KLK1 combined with 0.1 μg/ml thermolysin in a buffer of 0.05 M Tres (pH 7.5), 0.15 M NaCl, and 0.01 M CaCl2 for one hour at 37° C. The thermolysin is then deactivated by the addition of equal parts 20 mM 1, 10 phenanthroline solution in water. The activated KLK1 solution is then added to CHES buffer (0.05 M CHES, 0.15 M NaCl, 0.01 M CaCl2, pH 10) for a final concentration of 5 nM along with the test article and incubated for 10 minutes. […] Substrate activation is read 10 minutes after substrate addition using a Synergy H1 multifunction plate reader (Biotek) programmed with a 360 nm excitation wavelength and a 480 nm emission wavelength. Inhibitor response was established by adding test compound as ten point, three-fold serial dilutions, as known in the art. The IC50 was calculated by plotting the percent (%) inhibition against compound concentration and fitting the data to a constrained four parameter sigmoidal curve, as known in the art.

[3] = Pharmacokinetics in mice (i.v. and p.o.); type: in vivo, male CD-1 mice; conditions: male, CD-1, mouse, in vivo
Protocol: Each compound is administered intravenously (i.v.) as a single dose via tail vein or orally (p.o.) as a single dose via gastric gavage to male CD-1 mice of nominal weights between 20 g and 26 g. Nominal doses are 1 mg/kg and 5 mg/kg for i.v. and p.o., respectively. In some examples (dose type A), both p.o. and i.v. doses are prepared by dissolving the test compound in 5% dimethyl acetamide and diluted in tetraethylene glycol for a final concentration of 0.25 mg/mL. In other examples (dose type B), i.v. doses are prepared by dissolving test compounds in 20% dimethyl acetamide, 40% polyethylene glycol 300 and 40% phosphate buffered saline, and p.o. doses are prepared by dissolving test compounds in carboxymethyl cellulose suspension (1% by weight) in water and 2.5% dimethyl acetamide.
Animals are housed in standard holding cages with food and water available ad libitum except for animals used for p.o. dosing which are fasted overnight prior to dosing. Samples are taken in triplicate via cardiac puncture at times prior to dosing and at 0.083 (i.v. only), 0.25, 0.5, 1, 2, 4, 8, and 24 hours after administration. Plasma is obtained by centrifuge and stored frozen until analyzed by LC-MS/MS using a Shimadzu VP System HPLC coupled to a Applied Biosystems MDS SCIEX API 3000 triple quadrapole MS. Assay results are calibrated using reference samples prepared in a range between 1.5 and 5000 ng/mL.
Pharmacokinetic parameters are calculated from mean concentration values using a non-compartmental analysis as described in the following and as apparent to those of ordinary skill in the art. Half-lives (t1/2) and elimination rate constants (λ) are determined by log linear regression using equal weighting on the last three finite sample time points. Concentration at time zero (C0) for the i.v. data is established by the extrapolation of log linear regression using equal weighting on the first three sample time points. Area under the curve (AUC) values are calculated using linear trapezoidal integration. Systemic clearance (CL) is calculated as the ratio of dosage and AUC. […] Percent oral bioavailability (% F) is determined from the ratio of i.v. and p.o. AUC values weighted by dosage.

Human KLKB1 = Human KLKB1 (Homo sapiens (Human), UniProt P03952); experiment: KLKB1 kallikrein activity inhibition assay (chromogenic substrate S-2302); type: biochemical
Chain of Human KLKB1 (P03952 391-638 limits assumed): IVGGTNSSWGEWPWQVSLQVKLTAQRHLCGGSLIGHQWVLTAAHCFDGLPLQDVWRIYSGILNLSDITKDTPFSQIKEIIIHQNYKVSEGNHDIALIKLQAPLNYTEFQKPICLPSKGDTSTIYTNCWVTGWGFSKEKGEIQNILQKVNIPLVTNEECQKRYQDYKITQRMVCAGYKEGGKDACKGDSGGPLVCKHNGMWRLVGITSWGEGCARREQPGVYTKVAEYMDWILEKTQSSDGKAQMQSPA
Chain of Human KLKB1 (P03952 20-390 partner limits assumed): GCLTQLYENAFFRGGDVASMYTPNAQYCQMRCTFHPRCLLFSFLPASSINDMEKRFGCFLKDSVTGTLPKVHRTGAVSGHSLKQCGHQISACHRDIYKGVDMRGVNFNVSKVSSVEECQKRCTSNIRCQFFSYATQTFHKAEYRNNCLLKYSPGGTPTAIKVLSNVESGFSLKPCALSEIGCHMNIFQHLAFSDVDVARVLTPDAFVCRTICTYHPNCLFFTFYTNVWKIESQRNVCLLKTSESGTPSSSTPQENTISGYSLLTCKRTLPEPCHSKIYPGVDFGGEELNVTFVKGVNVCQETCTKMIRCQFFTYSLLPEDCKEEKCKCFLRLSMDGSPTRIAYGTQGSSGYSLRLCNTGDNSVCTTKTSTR
Method in brief: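 Enzyme at a final 3 nM was assayed in 0.05 M Tris pH 7.4, 0.01 M NaCl and 0.2% PEG-8000 at room temperature, with compounds as ten-point threefold dilutions.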

Human thrombin = Human thrombin (Homo sapiens (Human), UniProt P00734); experiment: Thrombin protease activity inhibition assay (chromogenic substrate S-2238); type: biochemical; conditions: 3 nM thrombin, 125 μM S-2238, 10 min pre-incubation, RT
Method in brief: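 Ten-point, three-fold serial dilutions of compound tested against 3 nM enzyme at RT in Tris buffer (0.05 M, pH 7.4) with 0.015 M NaCl and 0.01% PEG-8000.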

malignant breast tumors = conditions: treated mice, cited from earlier work

Compound | IC50 ([2]; Table B) [µM] | IC50 (Human KLKB1; Table B) [nM] | IC50 (Human thrombin) [nM] | other results
O=C(c1ccoc1)n1nc(-c2ccc[nH]c2=O)cc1NCc1ccc(Cl)s1 [Cmpd 4, 3-(5-[(5-chlorothiophen-2-yl)methyl]amino-1-[(furan-3-yl)carbonyl]-1H-pyrazol-3-yl)-1,2-dihydropyridin-2-one] | 10 to 100 | 1000 to 10000 |  | Papp at 4 h [1]: 2.5 ×10⁻⁶ cm/s; AUC ([3]; iv, 1 mg/kg): 100 ng·h/mL; C0 ([3]; iv, 1 mg/kg): 300 ng/mL; Vd ([3]; iv, 1 mg/kg): 10 L/kg; clearance ([3]; iv, 1 mg/kg): 167 mL/min/kg; half-life ([3]; iv, 1 mg/kg): 60 min; AUC ([3]; po, 5 mg/kg): 300 ng·h/mL; bioavailability ([3]; po, 5 mg/kg): 60%; half-life ([3]; po, 5 mg/kg): 360 min
COc1ccccc1C(=O)n1nc(-c2ccccn2)nc1NCc1ccc(Cl)s1 [Cmpd 22] |  |  |  | Papp at 4 h [1]: 5.7 ×10⁻⁶ cm/s; IC50 ([2]; Table C): 10 to 100 µM; IC50 (Human KLKB1; Table C): < 100 nM
Cn1cccc(-c2cc(NCc3ccc(Cl)s3)n(C(=O)c3ccoc3)n2)c1=O [Cmpd 23, 3-(5-[(5-chlorothiophen-2-yl)methyl]amino-1-[(furan-3-yl)carbonyl]-1H-pyrazol-3-yl)-1-methyl-1,2-dihydropyridin-2-one] | 10 to 100 | 1000 to 10000 | < 100 | AUC ([3]; iv, 1 mg/kg): 100 ng·h/mL; C0 ([3]; iv, 1 mg/kg): 400 ng/mL; Vd ([3]; iv, 1 mg/kg): 5 L/kg; clearance ([3]; iv, 1 mg/kg): 133 mL/min/kg; half-life ([3]; iv, 1 mg/kg): 30 min; AUC ([3]; po, 5 mg/kg): 80 ng·h/mL; bioavailability ([3]; po, 5 mg/kg): 10%; half-life ([3]; po, 5 mg/kg): 36 min
O=C(c1ccoc1)n1nc(-c2cccn(Cc3ccccn3)c2=O)cc1NCc1ccc(Cl)s1 [Cmpd 25, 3-(5-[(5-chlorothiophen-2-yl)methyl]amino-1-[(furan-3-yl)carbonyl]-1H-pyrazol-3-yl)-1-(pyridin-2-ylmethyl)-1,2-dihydropyridin-2-one] | 10 to 100 | 100 to 1000 | < 100 | AUC ([3]; iv, 1 mg/kg): 40 ng·h/mL; C0 ([3]; iv, 1 mg/kg): 100 ng/mL; Vd ([3]; iv, 1 mg/kg): 6 L/kg; clearance ([3]; iv, 1 mg/kg): 167 mL/min/kg; half-life ([3]; iv, 1 mg/kg): 18 min; AUC ([3]; po, 5 mg/kg): 10 ng·h/mL; bioavailability ([3]; po, 5 mg/kg): 9%; half-life ([3]; po, 5 mg/kg): > 18 min
O=C(c1ccoc1)n1nc(-c2cccn(Cc3ccco3)c2=O)cc1NCc1ccc(Cl)s1 [Cmpd 26, 3-(5-[(5-chlorothiophen-2-yl)methyl]amino-1-[(furan-3-yl)carbonyl]-1H-pyrazol-3-yl)-1-(furan-2-ylmethyl)-1,2-dihydropyridin-2-one] | 10 to 100 | 1000 to 10000 | < 100 | AUC ([3]; iv, 1 mg/kg): 50 ng·h/mL; C0 ([3]; iv, 1 mg/kg): 200 ng/mL; Vd ([3]; iv, 1 mg/kg): 5 L/kg; clearance ([3]; iv, 1 mg/kg): 167 mL/min/kg; half-life ([3]; iv, 1 mg/kg): 18 min; AUC ([3]; po, 5 mg/kg): 20 ng·h/mL; bioavailability ([3]; po, 5 mg/kg): 8%; half-life ([3]; po, 5 mg/kg): > 18 min
O=C(c1cccc2c1OCCO2)n1nc(-c2cccn(Cc3ccccn3)c2=O)cc1NCc1ccc(Cl)s1 [Cmpd 113, 3-(5-[(5-chlorothiophen-2-yl)methyl]amino-1-[(2,3-dihydro-1,4-benzodioxin-5-yl)carbonyl]-1H-pyrazol-3-yl)-1-(pyridin-2-ylmethyl)-1,2-dihydropyridin-2-one] | 10 to 100 | 100 to 1000 | < 100 | 
COc1ccc(C(=O)n2nc(-c3cccn(Cc4cccnc4)c3=O)cc2NCc2ccc(Cl)s2)c(OC)c1 [Cmpd 126, 3-(5-[(5-chlorothiophen-2-yl)methyl]amino-1-[(2,4-dimethoxyphenyl)carbonyl]-1H-pyrazol-3-yl)-1-(pyridin-3-ylmethyl)-1,2-dihydropyridin-2-one] | > 100 | 1000 to 10000 | < 100 | 
COc1ccccc1C(=O)n1nc(-c2ccc[nH]c2=O)cc1NCc1ccc(Cl)s1 [Cmpd 132, 3-(5-[(5-chlorothiophen-2-yl)methyl]amino-1-[(2-methoxyphenyl)carbonyl]-1H-pyrazol-3-yl)-1,2-dihydropyridin-2-one] | > 100 | 1000 to 10000 | < 100 | 
COc1ccccc1C(=O)n1nc(-c2cccn(Cc3cccnn3)c2=O)cc1NCc1ccc(Cl)s1 [Cmpd 138, 3-(5-[(5-chlorothiophen-2-yl)methyl]amino-1-[(2-methoxyphenyl)carbonyl]-1H-pyrazol-3-yl)-1-(pyridazin-3-ylmethyl)-1,2-dihydropyridin-2-one] | > 100 | 100 to 1000 | < 100 | 
COc1ccccc1C(=O)n1nc(-c2cccn(CC(=O)N3CCOCC3)c2=O)cc1NCc1ccc(Cl)s1 [Cmpd 145, 3-(5-[(5-chlorothiophen-2-yl)methyl]amino-1-[(2-methoxyphenyl)carbonyl]-1H-pyrazol-3-yl)-1-[2-(morpholin-4-yl)-2-oxoethyl]-1,2-dihydropyridin-2-one] | > 100 | 1000 to 10000 | < 100 | 
COCCn1cccc(-c2cc(NCc3ccc(Cl)s3)n(C(=O)C3(C)CCOCC3)n2)c1=O [Cmpd 149, 3-(5-[(5-chlorothiophen-2-yl)methyl]amino-1-[(4-methyloxan-4-yl)carbonyl]-1H-pyrazol-3-yl)-1-(2-methoxyethyl)-1,2-dihydropyridin-2-one] | > 100 | 1000 to 10000 | > 100000 | 
O=C(c1ccc(N2CCOCC2)cc1)n1nc(-c2cccn(Cc3cccnc3)c2=O)cc1NCc1ccc(Cl)s1 [Cmpd 213, 3-(5-[(5-chlorothiophen-2-yl)methyl]amino-1-[4-(morpholin-4-yl)phenyl]carbonyl-1H-pyrazol-3-yl)-1-(pyridin-3-ylmethyl)-1,2-dihydropyridin-2-one] | > 100 | 100 to 1000 | < 100 | 
COCCn1cccc(-c2cc(NCc3ccc(Cl)s3)n(C(=O)c3ccccc3Cl)n2)c1=O [Cmpd 242, 3-1-[(2-chlorophenyl)carbonyl]-5-[(5-chlorothiophen-2-yl)methyl]amino-1H-pyrazol-3-yl-1-(2-methoxyethyl)-1,2-dihydropyridin-2-one] | > 100 | 100 to 1000 | < 100 | 
O=C(c1ccccc1Cl)n1nc(-c2cccn(Cc3cccnc3)c2=O)cc1NCc1ccc(Cl)s1 [Cmpd 247, 3-1-[(2-chlorophenyl)carbonyl]-5-[(5-chlorothiophen-2-yl)methyl]amino-1H-pyrazol-3-yl-1-(pyridin-3-ylmethyl)-1,2-dihydropyridin-2-one] | > 100 | < 100 | < 100 | 
O=C(c1ccccc1Cl)n1nc(-c2cccn(Cc3ccncc3)c2=O)cc1NCc1ccc(Cl)s1 [Cmpd 248, 3-1-[(2-chlorophenyl)carbonyl]-5-[(5-chlorothiophen-2-yl)methyl]amino-1H-pyrazol-3-yl-1-(pyridin-4-ylmethyl)-1,2-dihydropyridin-2-one] | > 100 | 100 to 1000 | < 100 | 
CCCCCCOC(=O)N=C(N)c1ccc(NCc2nc3cc(C(=O)N(CCC(=O)OCC)c4ccccn4)ccc3n2C)cc1 [dabigatran etexilate] |  |  |  | reduction in tumor volume (malignant breast tumors; at 4 weeks): 50%; reduced tumor cells in the blood and liver micrometastases (malignant breast tumors): 50-60%
